Measurements: PMC3604073, “Chemerin Is an Antimicrobial Agent in Human Epidermis” (PLoS ONE, 2013)

How the values were obtained:
E. coli ATCC 25922 = experiment: Radial diffusion assay (RDA); format: cell-based; settings: peptides at 100 µM, low salt conditions
Description: The indicated bacteria were grown to mid-logarithmic phase in 10 ml of full-strength (3% w/v) TSB as previously described. The microorganisms were then washed once with 10 mM Tris, pH 7.4. 4×10^6 bacterial CFUs were then added to 15 ml of the underlay agarose gel, consisting of 0.03% (w/v) TSB, 1% (w/v) low electroendosmosis type (EEO) agarose (Sigma) and 0.02% (v/v) Tween 20 (Sigma), with or without 0.15 M NaCl. The underlay was poured into a Ø 144 mm Petri dish. After agarose solidification, 4 mm-diameter wells were punched and 6 µl of chemerin-derived peptides or LL37 (Innovagen AB) was added to each well. Plates were incubated at 37°C for 3 hours to allow diffusion of the peptides. The underlay gel was then covered with 15 ml of molten overlay (6% TSB and 1% Low-EEO agarose in dH2O). Antimicrobial activity of a peptide was visualized as a zone of clearing around each well after 18–24 hours of incubation at 37°C.

E. coli = settings: evaluated at 2 µM; cited from earlier work

Molecule | inhibition of growth zones in RDA (E. coli ATCC 25922) | E. coli survival (E. coli)
RKCLACIKLGSEDKVLGRLV [p6, synthetic chemerin-derived peptide] | inhibited growth zones | 
DWKKPECKVRPNGRKRKCLA [p5, synthetic chemerin-derived peptide] | inhibited growth zones | 
pro-chem163S: chemerin precursor (holoprotein) with the inhibitory C-terminal peptide (protein, UniProt Q99969 21-163, looked up, pro-form) pro-form: ELTEAQRRGLQVALEEFHKHPPVQWAFQETSVESAVDTPFPAGIFVRLEFKLQQTSCRKRDWKKPECKVRPNGRKRKCLACIKLGSEDKVLGRLVHCPIETQVLREAEEHQETQCLRVQRAGEDPHSFYFPGQFAFSKALPRS |  | 59±13%
